From patent US20140296528A1, “4-ARYL-1-(BIARYLMETHYLENE) PIPERIDINE COMPOUNDS” (KING ABDULAZIZ CITY FOR SCIENCE AND TECHNOLOGY, priority 2013, published 2014)

test system: not given; conditions: not given

Structure (SMILES)	melting point [°C]
O=C1CCc2cccc(C3CCN(Cc4ccc(-c5ccccc5)cc4)CC3)c2N1 [Compound 5a, 8-(1-(Biphenyl-4-ylmethyl)piperidin-4-yl)-3,4-dihydroquinolin-2(1H)-one]	116 to 118
O=C1CCc2cccc(C3CCN(Cc4ccc(-c5ccc(F)cc5)cc4)CC3)c2N1 [Compound 5b, 8-(1-((4′-Fluorobiphenyl-4-yl)methyl)piperidin-4-yl)-3,4-dihydroquinolin-2(1H)-one]	132 to 134
COc1ccc2cccc(C3CCN(Cc4cncc(-c5ccccc5)c4)CC3)c2n1 [Compound 3c, 2-Methoxy-8-(1-((5-phenylpyridin-3-yl)methyl)piperidin-4-yl)quinoline]	135 to 137
O=c1ccc2cccc(C3CCN(Cc4cncc(C5=CCCC5)c4)CC3)c2[nH]1 [Compound 4f, 8-(1-((5-Cyclopentenylpyridin-3-yl)-methyl)piperidin-4-yl)quinolin-2(1H)-one]	133 to 135
O=C1CCc2cccc(C3CCN(Cc4cncc(-c5ccc(F)cc5)c4)CC3)c2N1 [Compound 5d, 8-(1-((5-(4-Fluorophenyl)pyridin-3-yl)methyl)piperidin-4-yl)-3,4-dihydroquinolin-2(1H)-one]	136 to 138
O=c1ccc2cccc(C3CCN(Cc4cccc(C5=CCCC5)c4)CC3)c2[nH]1 [Compound 4e, 8-(1-(3-Cyclopentenylbenzyl)piperidin-4-yl)quinolin-2(1H)-one]	123 to 125
O=C1CCc2cccc(C3CCN(Cc4cccc(C5=CCCC5)c4)CC3)c2N1 [Compound 5e, 8-(1-(3-Cyclopentenylbenzyl)piperidin-4-yl)-3,4-dihydroquinolin-2(1H)-one]	115 to 117
O=c1ccc2cccc(C3CCN(Cc4ccc(-c5ccccc5)cc4)CC3)c2[nH]1 [Compound 4a, 8-(1-(Biphenyl-4-ylmethyl)piperidin-4-yl)quinolin-2(1H)-one]	146 to 148
COc1ccc2cccc(C3CCN(Cc4cncc(-c5ccc(F)cc5)c4)CC3)c2n1 [Compound 3d, 8-(1-((5-(4-Fluorophenyl)pyridin-3-yl)methyl)piperidin-4-yl)-2-methoxyquinoline]	156 to 158
O=c1ccc2cccc(C3CCN(Cc4ccc(-c5ccc(F)cc5)cc4)CC3)c2[nH]1 [Compound 4b, 8-(1-((4′-Fluorobiphenyl-4-yl)methyl)piperidin-4-yl)quinolin-2(1H)-one]	159 to 161
O=c1ccc2cccc(C3CCN(Cc4cncc(-c5ccc(F)cc5)c4)CC3)c2[nH]1 [Compound 4d, 8-(1-((5-(4-Fluorophenyl)pyridin-3-yl)methyl)piperidin-4-yl)quinolin-2(1H)-one]	161 to 163
O=c1ccc2cccc(C3CCN(Cc4cncc(-c5ccccc5)c4)CC3)c2[nH]1 [Compound 4c, 8-(1-((5-Phenylpyridin-3-yl)methyl)piperidin-4-yl)quinolin-2(1H)-one]	158 to 160
COc1ccc2cccc(C3CCN(Cc4ccc(-c5ccccc5)cc4)CC3)c2n1 [Compound 3a, 8-(1-(Biphenyl-4-ylmethyl)piperidin-4-yl)-2-methoxyquinoline]	84 to 85
COc1ccc2cccc(C3CCN(Cc4cccc(C5=CCCC5)c4)CC3)c2n1 [Compound 3e, 8-(1-(3-Cyclopentenylbenzyl)piperidin-4-yl)-2-methoxyquinoline]	125 to 126
O=C1CCc2cccc(C3CCN(Cc4cncc(C5=CCCC5)c4)CC3)c2N1 [Compound 5f, 8-(1-((5-cyclopentenylpyridin-3-yl)methyl)piperidin-4-yl)-3,4-dihydroquinolin-2(1H)-one]	123 to 125

test system: phencyclidine-induced social interaction deficits; conditions: background statement on prior-art compounds; cited from earlier work

Structure (SMILES)	oppose phencyclidine-induced social interaction deficits
Fc1ccc(-c2cncc(CN3CCN(c4cccc5c4OCCO5)CC3)c2)cc1 [adoprazine]	failure
O=c1[nH]c2cccc(N3CCN(Cc4cccc(-c5ccccc5)c4)CC3)c2o1 [bifeprunox]	failure
